The source made the active and inactive calls. The rule behind the calls is not given here.
What was measured:
[1] = target: Tyrosine-protein kinase Yes (Homo sapiens) (UniProt P07947); experiment: Inhibition of human Yes assessed as remaining activity at 1 uM after 40 mins in presence of [gamma33P-ATP] by scintillation counting
[2] = Cytotoxicity against human MCF7 cells assessed as reduction in cell viability after 96 hrs by CellTiter-Glo luminescence assay or methylene blue assay; type: functional, cell-based; conditions: MCF7, 96 h
[3] = target: Tyrosine-protein kinase Yes (Homo sapiens) (UniProt P07947); experiment: Inhibition of human Yes assessed as remaining activity at 0.1 uM after 40 mins in presence of [gamma33P-ATP] by scintillation counting
[4] = Cytotoxicity against human COLO205 cells expressing B-RAF V600E mutant assessed as reduction in cell viability after 96 hrs by CellTiter-Glo luminescence assay or methylene blue assay; type: functional, cell-based; conditions: COLO 205, 96 h
[5] = Cytotoxicity against human MDA-MB-435 cells expressing B-RAF V600E mutant assessed as reduction in cell viability after 96 hrs by CellTiter-Glo luminescence assay or methylene blue assay; type: functional, cell-based; conditions: MDA-MB-435, 96 h
[6] = target: T1, Dual specificity mitogen-activated protein kinase kinase 1 (Homo sapiens, UniProt Q02750); experiment: Competitive inhibition of MEK1 (unknown origin) using ERK2 as substrate after 40 mins by ELISA
[7] = Cytotoxicity against human DU4475 cells expressing B-RAF V600E mutant assessed as reduction in cell viability after 96 hrs by CellTiter-Glo luminescence assay or methylene blue assay; type: functional, cell-based; conditions: DU-4475, 96 h
[8] = Cytotoxicity against human MES-SA cells assessed as reduction in cell viability after 96 hrs by CellTiter-Glo luminescence assay or methylene blue assay; type: functional, cell-based
[9] = Cytotoxicity against human DLD1 cells expressing K-ras G13D mutant assessed as reduction in cell viability after 96 hrs by CellTiter-Glo luminescence assay or methylene blue assay; type: functional, cell-based; conditions: DLD-1, 96 h
[10] = Cytotoxicity against human LoVo cells expressing K-ras G13D mutant assessed as reduction in cell viability after 96 hrs by CellTiter-Glo luminescence assay or methylene blue assay; type: functional, cell-based
[11] = Cytotoxicity against human MDA-MB-231 cells expressing K-ras G13D mutant assessed as reduction in cell viability after 96 hrs by CellTiter-Glo luminescence assay or methylene blue assay; type: functional, cell-based; conditions: MDA-MB-231, 96 h
[12] = Antiproliferative activity against human RL cells after 96 hrs by MTT assay; type: functional, cell-based
[13] = Antiproliferative activity against human HL60 cells after 96 hrs by MTT assay; type: functional, cell-based; conditions: HL-60, 96 h
[14] = Cytotoxicity against human HT-29 cells expressing B-RAF V600E mutant assessed as reduction in cell viability after 96 hrs by CellTiter-Glo luminescence assay or methylene blue assay; type: functional, cell-based; conditions: HT-29, 96 h
[15] = Antiproliferative activity against human K562 cells after 96 hrs by MTT assay; type: functional, cell-based; conditions: K562, 96 h
[16] = Antiproliferative activity against human RPMI8226 cells after 96 hrs by MTT assay; type: functional, cell-based; conditions: RPMI-8226, 96 h
[17] = Cytotoxicity against human SK-MEL-3 cells expressing B-RAF V600E mutant assessed as reduction in cell viability after 96 hrs by CellTiter-Glo luminescence assay or methylene blue assay; type: functional, cell-based; conditions: SK-MEL3, 96 h
[18] = target: T1, Dual specificity mitogen-activated protein kinase kinase 1; experiment: Inhibition of human MEK1 assessed as remaining activity at 1 uM after 40 mins in presence of [gamma33P-ATP] by scintillation counting
[19] = Cytotoxicity against human HCT116 cells expressing K-ras G13D mutant assessed as reduction in cell viability after 96 hrs by CellTiter-Glo luminescence assay or methylene blue assay; type: functional, cell-based; conditions: HCT-116, 96 h
[20] = Cytotoxicity against human MIAPaCa2 cells expressing K-ras G12C mutant assessed as reduction in cell viability after 96 hrs by CellTiter-Glo luminescence assay or methylene blue assay; type: functional, cell-based; conditions: MIA PaCa-2, 96 h
[21] = Cytotoxicity against human SK-MEL-2 cells expressing N-ras Q61R mutant assessed as reduction in cell viability after 96 hrs by CellTiter-Glo luminescence assay or methylene blue assay; type: functional, cell-based; conditions: SK-MEL-2, 96 h
[22] = target: T1, Dual specificity mitogen-activated protein kinase kinase 1; experiment: Inhibition of human MEK1 assessed as remaining activity at 0.1 uM after 40 mins in presence of [gamma33P-ATP] by scintillation counting
[23] = Cytotoxicity against human SK-MEL-31 cells expressing B-RAF V600E mutant assessed as reduction in cell viability after 96 hrs by CellTiter-Glo luminescence assay or methylene blue assay; type: functional, cell-based
[24] = Cytotoxicity against human PANC1 cells expressing K-ras G12D mutant assessed as reduction in cell viability after 96 hrs by CellTiter-Glo luminescence assay or methylene blue assay; type: functional, cell-based; conditions: PANC-1, 96 h
[25] = (§1) Antitumor activity against human LOX cells expressing B-RAF V600E mutant xenografted in athymic mouse assessed as tumor regression at 20 to 40 mg/kg, iv administered for two weekly rounds of five injections daily with two-day rest period between the rounds measured twice weekly from first day of treatment; type: functional
[26] = Cytotoxicity against human BxPC3 cells assessed as reduction in cell viability after 96 hrs by CellTiter-Glo luminescence assay or methylene blue assay; type: functional, cell-based; conditions: BXPC-3, 96 h
[27] = Cytotoxicity against human SK-MEL-24 cells expressing B-RAF V600E mutant assessed as reduction in cell viability after 96 hrs by CellTiter-Glo luminescence assay or methylene blue assay; type: functional, cell-based; conditions: SK-MEL-24, 96 h
[28] = Cytotoxicity against human IMR90 cells assessed as reduction in cell viability after 96 hrs by CellTiter-Glo luminescence assay or methylene blue assay; type: functional, cell-based; conditions: IMR-90, 96 h
[29] = Cytotoxicity against human MES-SA/Dx5-Rx1 cells assessed as reduction in cell viability after 96 hrs by CellTiter-Glo luminescence assay or methylene blue assay; type: functional, cell-based
[30] = Cytotoxicity against human SW620 cells expressing K-ras G12V mutant assessed as reduction in cell viability after 96 hrs by CellTiter-Glo luminescence assay or methylene blue assay; type: functional, cell-based; conditions: SW-620, 96 h
[31] = target: Tyrosine-protein kinase Lck (Homo sapiens) (UniProt P06239); experiment: Inhibition of human Lck assessed as remaining activity at 1 uM after 40 mins in presence of [gamma33P-ATP] by scintillation counting
[32] = target: Tyrosine-protein kinase Lck (Homo sapiens) (UniProt P06239); experiment: Inhibition of human Lck assessed as remaining activity at 0.1 uM after 40 mins in presence of [gamma33P-ATP] by scintillation counting
[33] = Antiproliferative activity against human U266 cells after 96 hrs by MTT assay; type: functional, cell-based; conditions: U-266, 96 h
[34] = Cytotoxicity against human AU565 cells assessed as reduction in cell viability after 96 hrs by CellTiter-Glo luminescence assay or methylene blue assay; type: functional, cell-based; conditions: AU565, 96 h
[35] = Antiproliferative activity against human THP1 cells after 96 hrs by MTT assay; type: functional, cell-based; conditions: THP-1, 96 h
[36] = target: Tyrosine-protein kinase ABL1 (Homo sapiens) (UniProt P00519); experiment: Inhibition of human Abl assessed as remaining activity at 0.1 uM after 40 mins in presence of [gamma33P-ATP] by scintillation counting
[37] = target: Tyrosine-protein kinase ABL1 (Homo sapiens) (UniProt P00519); experiment: Inhibition of human Abl assessed as remaining activity at 1 uM after 40 mins in presence of [gamma33P-ATP] by scintillation counting
[38] = target: Nuclear factor NF-kappa-B complex (Homo sapiens) (UniProt Q00653+P19838+Q04206); experiment: Inhibition of NFkappaB (unknown origin); type: protein-complex assay
[39] = Antiproliferative activity against human NALM6 cells after 96 hrs by MTT assay; type: functional, cell-based; conditions: NALM-6, 96 h
[40] = as §1, with “10” for “20 to 40”, “treatment for 3 weeks” for “treatment”; type: functional
LOX = experiment: Antitumor activity against human LOX cells expressing B-RAF V600E mutant xenografted in athymic mouse assessed as tumor regression at 10 to 40 mg/kg, iv administered for two weekly rounds of five injections daily with two-day rest period between the rounds measured at end of study; type: functional, organism-based

T1 sequence (Q02750 whole entry): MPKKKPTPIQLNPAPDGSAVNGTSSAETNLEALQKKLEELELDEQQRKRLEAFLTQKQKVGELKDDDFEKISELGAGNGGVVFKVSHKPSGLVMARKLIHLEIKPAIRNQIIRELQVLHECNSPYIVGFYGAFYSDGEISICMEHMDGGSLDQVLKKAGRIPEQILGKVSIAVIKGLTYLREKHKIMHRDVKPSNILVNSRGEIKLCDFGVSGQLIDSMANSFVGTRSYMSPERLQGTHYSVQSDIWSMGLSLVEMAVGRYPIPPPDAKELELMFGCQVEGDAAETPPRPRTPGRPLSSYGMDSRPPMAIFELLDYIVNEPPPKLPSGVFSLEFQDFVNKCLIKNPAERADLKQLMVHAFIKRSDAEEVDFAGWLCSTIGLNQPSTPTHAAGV
Sequence of Tyrosine-protein kinase Lck (Homo sapiens) (P06239 2-509 limits assumed): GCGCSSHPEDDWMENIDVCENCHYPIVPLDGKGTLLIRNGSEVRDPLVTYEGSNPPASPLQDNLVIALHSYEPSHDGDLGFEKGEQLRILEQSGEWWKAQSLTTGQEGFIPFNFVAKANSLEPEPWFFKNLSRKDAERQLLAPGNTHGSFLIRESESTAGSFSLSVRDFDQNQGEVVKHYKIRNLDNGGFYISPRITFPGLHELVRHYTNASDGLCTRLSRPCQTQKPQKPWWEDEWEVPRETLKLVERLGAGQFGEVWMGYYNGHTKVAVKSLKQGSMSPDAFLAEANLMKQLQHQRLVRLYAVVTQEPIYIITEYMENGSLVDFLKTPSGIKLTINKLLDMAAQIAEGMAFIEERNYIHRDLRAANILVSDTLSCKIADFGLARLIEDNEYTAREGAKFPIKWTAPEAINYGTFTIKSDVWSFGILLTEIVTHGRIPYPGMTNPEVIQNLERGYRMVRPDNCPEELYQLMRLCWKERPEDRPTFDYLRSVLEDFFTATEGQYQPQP
Sequence of Tyrosine-protein kinase Yes (Homo sapiens) (P07947 2-543 limits assumed): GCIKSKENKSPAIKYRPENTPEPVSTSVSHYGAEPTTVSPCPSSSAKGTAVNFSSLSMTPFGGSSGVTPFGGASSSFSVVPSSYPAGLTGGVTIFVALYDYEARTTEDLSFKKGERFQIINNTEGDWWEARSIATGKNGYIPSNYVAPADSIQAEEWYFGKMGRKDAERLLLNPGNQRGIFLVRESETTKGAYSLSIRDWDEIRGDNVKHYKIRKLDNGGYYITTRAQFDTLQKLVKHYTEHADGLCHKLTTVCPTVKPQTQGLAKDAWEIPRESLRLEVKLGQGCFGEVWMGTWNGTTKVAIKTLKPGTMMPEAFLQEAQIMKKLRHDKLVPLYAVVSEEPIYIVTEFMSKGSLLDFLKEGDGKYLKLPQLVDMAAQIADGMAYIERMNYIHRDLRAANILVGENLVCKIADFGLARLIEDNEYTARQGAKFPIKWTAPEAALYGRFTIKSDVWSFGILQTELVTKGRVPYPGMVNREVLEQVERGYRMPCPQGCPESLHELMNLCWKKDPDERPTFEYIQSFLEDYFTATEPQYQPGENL
Sequence of Tyrosine-protein kinase ABL1 (Homo sapiens) (P00519 whole entry): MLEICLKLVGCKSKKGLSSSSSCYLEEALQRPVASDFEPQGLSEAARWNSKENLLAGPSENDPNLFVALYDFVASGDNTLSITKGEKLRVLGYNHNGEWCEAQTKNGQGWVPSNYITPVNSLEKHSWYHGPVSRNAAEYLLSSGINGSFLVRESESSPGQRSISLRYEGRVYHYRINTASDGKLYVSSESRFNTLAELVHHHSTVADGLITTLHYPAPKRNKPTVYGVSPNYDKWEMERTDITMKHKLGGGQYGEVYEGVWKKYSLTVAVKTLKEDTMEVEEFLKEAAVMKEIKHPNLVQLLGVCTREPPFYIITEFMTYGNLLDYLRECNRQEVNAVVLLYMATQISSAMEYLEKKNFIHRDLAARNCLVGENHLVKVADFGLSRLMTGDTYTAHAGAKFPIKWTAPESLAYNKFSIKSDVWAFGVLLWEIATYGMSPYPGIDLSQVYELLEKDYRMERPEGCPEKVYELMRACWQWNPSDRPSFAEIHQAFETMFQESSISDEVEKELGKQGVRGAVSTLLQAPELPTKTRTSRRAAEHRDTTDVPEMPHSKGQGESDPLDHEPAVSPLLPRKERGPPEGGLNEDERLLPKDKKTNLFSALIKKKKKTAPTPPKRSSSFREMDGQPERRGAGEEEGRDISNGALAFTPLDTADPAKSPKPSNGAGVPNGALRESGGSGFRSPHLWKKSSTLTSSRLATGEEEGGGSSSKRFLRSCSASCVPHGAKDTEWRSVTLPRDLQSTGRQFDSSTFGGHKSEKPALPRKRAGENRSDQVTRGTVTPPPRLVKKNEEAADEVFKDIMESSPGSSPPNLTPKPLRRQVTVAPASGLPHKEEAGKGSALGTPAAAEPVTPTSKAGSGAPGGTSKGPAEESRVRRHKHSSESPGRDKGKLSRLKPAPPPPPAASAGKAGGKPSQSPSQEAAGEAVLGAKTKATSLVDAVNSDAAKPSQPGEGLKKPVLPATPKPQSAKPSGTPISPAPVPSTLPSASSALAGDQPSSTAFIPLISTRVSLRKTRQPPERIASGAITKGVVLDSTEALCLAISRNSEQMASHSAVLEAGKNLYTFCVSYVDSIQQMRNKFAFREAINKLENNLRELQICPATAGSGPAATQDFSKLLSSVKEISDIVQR
Sequence of Nuclear factor NF-kappa-B complex (Homo sapiens) (P19838 whole entry, looked up): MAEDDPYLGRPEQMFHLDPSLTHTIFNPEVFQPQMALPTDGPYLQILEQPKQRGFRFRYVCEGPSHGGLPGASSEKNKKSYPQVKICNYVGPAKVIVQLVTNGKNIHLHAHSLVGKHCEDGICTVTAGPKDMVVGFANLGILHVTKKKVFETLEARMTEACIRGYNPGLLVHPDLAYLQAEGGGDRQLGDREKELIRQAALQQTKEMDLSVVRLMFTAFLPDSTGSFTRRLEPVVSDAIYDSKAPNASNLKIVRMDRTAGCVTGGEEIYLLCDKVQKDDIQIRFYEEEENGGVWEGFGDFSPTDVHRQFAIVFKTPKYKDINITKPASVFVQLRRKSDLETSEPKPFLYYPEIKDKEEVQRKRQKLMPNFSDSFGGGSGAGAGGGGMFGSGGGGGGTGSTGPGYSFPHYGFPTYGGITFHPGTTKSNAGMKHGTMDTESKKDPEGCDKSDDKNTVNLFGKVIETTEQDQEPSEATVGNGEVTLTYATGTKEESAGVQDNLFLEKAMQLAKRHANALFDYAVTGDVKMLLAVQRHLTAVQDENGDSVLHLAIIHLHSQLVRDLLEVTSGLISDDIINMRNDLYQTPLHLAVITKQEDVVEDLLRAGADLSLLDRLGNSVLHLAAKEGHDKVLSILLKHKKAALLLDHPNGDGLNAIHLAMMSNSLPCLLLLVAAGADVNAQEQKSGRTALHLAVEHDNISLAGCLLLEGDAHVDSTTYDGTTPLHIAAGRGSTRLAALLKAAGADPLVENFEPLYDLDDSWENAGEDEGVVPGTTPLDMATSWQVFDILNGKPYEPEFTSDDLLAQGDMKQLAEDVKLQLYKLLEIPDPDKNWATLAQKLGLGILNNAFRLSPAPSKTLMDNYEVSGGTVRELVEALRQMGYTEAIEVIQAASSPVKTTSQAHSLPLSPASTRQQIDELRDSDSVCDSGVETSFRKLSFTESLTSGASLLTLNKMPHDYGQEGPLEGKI
Sequence of Nuclear factor NF-kappa-B complex (Homo sapiens) (Q00653 whole entry, looked up): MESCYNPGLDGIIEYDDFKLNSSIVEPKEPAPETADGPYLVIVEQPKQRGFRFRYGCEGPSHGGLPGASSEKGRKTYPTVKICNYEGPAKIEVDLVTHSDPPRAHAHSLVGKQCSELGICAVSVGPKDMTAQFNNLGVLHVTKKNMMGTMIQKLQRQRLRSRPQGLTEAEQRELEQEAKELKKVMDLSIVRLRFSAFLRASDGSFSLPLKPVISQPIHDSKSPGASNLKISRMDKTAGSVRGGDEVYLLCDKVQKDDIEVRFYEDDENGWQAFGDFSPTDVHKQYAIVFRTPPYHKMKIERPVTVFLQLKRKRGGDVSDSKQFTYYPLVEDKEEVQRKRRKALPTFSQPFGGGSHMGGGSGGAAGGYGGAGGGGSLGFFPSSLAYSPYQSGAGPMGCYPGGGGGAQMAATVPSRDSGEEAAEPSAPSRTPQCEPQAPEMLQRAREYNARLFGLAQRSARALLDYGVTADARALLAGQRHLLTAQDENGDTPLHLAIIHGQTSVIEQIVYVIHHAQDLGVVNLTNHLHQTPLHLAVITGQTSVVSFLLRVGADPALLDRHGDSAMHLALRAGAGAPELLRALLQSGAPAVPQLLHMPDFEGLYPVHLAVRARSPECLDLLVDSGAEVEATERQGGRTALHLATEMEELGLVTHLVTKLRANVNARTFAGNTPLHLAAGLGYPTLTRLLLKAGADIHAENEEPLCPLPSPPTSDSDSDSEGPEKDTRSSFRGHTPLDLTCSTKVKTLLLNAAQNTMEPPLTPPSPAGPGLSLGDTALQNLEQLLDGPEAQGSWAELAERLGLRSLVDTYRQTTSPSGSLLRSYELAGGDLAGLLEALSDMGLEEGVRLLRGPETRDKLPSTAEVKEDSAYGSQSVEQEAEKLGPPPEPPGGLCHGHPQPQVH
Sequence of Nuclear factor NF-kappa-B complex (Homo sapiens) (Q04206 whole entry, looked up): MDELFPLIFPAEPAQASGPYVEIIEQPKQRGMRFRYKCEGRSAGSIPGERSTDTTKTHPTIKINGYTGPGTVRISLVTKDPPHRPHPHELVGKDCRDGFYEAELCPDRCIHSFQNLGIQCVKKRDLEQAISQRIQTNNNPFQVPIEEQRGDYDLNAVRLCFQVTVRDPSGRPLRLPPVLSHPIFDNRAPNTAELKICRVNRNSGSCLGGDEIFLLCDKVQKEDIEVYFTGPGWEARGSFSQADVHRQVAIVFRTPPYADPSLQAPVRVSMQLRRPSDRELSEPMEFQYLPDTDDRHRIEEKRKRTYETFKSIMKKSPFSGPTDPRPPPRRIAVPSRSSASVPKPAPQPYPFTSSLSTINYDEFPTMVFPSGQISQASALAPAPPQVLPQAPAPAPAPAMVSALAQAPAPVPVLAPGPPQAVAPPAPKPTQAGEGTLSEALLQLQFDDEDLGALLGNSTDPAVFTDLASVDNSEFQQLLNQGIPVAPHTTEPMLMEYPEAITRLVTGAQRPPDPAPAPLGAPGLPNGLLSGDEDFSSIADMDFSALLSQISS

In the case of `CNc1cc(O)c2c(c1)/C=C/C[C@H](O)[C@H](O)C(=O)/C=C\[C@@H](C)[C@H](C)OC2=O`, the Activity [1] is reported as 7%, the IC50 [2] is reported as over 10000 nM and the Activity [3] is reported as 46%. The IC50 [4] was 27 nM, the IC50 [5] was 50 nM and the inhibition [6] was “Active”. The IC50 [7] was 30 nM, the IC50 [8] was 5780 nM and the IC50 [9] was 466 nM. It also gave an IC50 [10] of 90 nM, an IC50 [11] of 119 nM and an IC50 [12] of 1620 nM. For the same molecule, the IC50 [13] was 50 nM, the IC50 [14] was 65 nM and the IC50 [15] was 1430 nM. It also gave an IC50 [16] of over 4830 nM, an IC50 [17] of 19 nM and an Activity [18] of 4%. The IC50 [19] was 257 nM, the IC50 [20] was 582 nM and the IC50 [21] was 113 nM. The Activity [22] was 30%, the IC50 [23] was 209 nM and the IC50 [24] was over 10000 nM. For the same molecule, the Activity [25] was 100%, the IC50 [26] was 412 nM and the IC50 [27] was 53 nM. It also gave an IC50 [28] of over 10000 nM, an IC50 [29] of 908 nM and an IC50 [30] of 207 nM. For the same molecule, the Activity [31] was 3%, the Activity [32] was 38% and the IC50 [33] was 1000 nM. The IC50 [34] was over 10000 nM, the IC50 [35] was 90 nM and the Activity [36] was 69%. For the same molecule, the Activity [37] was 22%, the inhibition [38] was “Active” and the IC50 [39] was 650 nM. The Activity [40] was 100% and the Activity (LOX) was “Active”.

Source: ChEMBL document CHEMBL3880411, “Multikinase inhibitors for use in the treatment of cancer” (2009)
